{"source": "patent US20240327393A1", "about": "(SIRONAX LTD., priority 2021, published 2024)", "data": [{"test_system": "HT-1080 (ATCC, CCL-121) cells", "assay": "HT-1080 cell viability assay with ferroptosis inducer RSL3 (Cell Titer-Glo)", "assay_type": "cell-based", "details": "Homo sapiens; HT-1080 cells treated with RSL3; 3-fold, 10-point dilution, 1.1 μM highest concentration; Table 2; read-out: EC50 (nM), ferroptosis inhibitory activity", "summary_of_the_method": "(§1)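 EC50 was derived by sigmoidal dose-response regression of CellTiter-Glo luminescence viability, expressed relative to untreated wells. Compounds were tested in a ten-point, threefold dilution series (highest 1.1 μM) in the presence of the ferroptosis inducer RSL3. HT-1080 cells had been seeded at 6000 per well and grown overnight first.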", "units": {"EC50": "nM"}, "values": [{"smiles": "COCCOCCN(C)c1ccc(Nc2ccc3c(c2)n(C)c(=O)n3C)cc1", "note": "[Compound 369, 5-((4-((2-(2-methoxyethoxy)ethyl)(methyl)amino)phenyl)amino)-1,3-dimethyl-1,3-dihydro-2H-benzo[d]imidazol-2-one]", "EC50": "100 to 1000"}, {"smiles": "CC1CCN(c2ccc(Nc3ccc4c(c3)CN(C3CCN(C)CC3)C4=O)cc2)CC1", "note": "[Compound 249, 5-((4-(4-methylpiperidin-1-yl)phenyl)amino)-2-(1-methylpiperidin-4-yl) isoindolin-1-one]", "EC50": "0.1 to 100"}, {"smiles": "CC(=O)N1CCc2cc(Nc3ccccc3)ccc2C1", "note": "[Compound 106, 1-(6-(phenylamino)-3,4-dihydroisoquinolin-2(1H)-yl)ethan-1-one]", "EC50": "0.1 to 100"}, {"smiles": "Cn1cnc2ccc(Nc3ccc(N4CCC(C(F)(F)F)CC4)cc3)cc21", "note": "[Compound 350, 1-methyl-N-(4-(4-(trifluoromethyl)piperidin-1-yl)phenyl)-1H-benzo[d]imidazol-6-amine]", "EC50": "0.1 to 100"}, {"smiles": "CCNc1nc2cc(Nc3ccc(N4CCC(C(F)(F)F)CC4)cc3)ccc2n1C", "note": "[Compound 401, N2-ethyl-1-methyl-N5-(4-(4-(trifluoromethyl)piperidin-1-yl)phenyl)-1H-benzo[d]imidazole-2,5-diamine]", "EC50": "0.1 to 100"}, {"smiles": "CN1C(=O)COc2cc(Nc3ccc(C4CCC(C)(C)CC4)cc3)ccc21", "note": "[Compound 35, 7-((4-(4,4-dimethylcyclohexyl)phenyl)amino)-4-methyl-2H-benzo[b][1,4]oxazin-3(4H)-one]", "EC50": "0.1 to 100"}, {"smiles": "COCCN1C(=O)COc2cc(Nc3ccc(N4CCC(C(F)(F)F)CC4)cc3)ccc21", "note": "[Compound 11, 4-(2-methoxyethyl)-7-((4-(4-(trifluoromethyl)piperidin-1-yl)phenyl)amino)-2H-benzo[b][1,4]oxazin-3(4H)-one]", "EC50": "0.1 to 100"}, {"smiles": "CC1(C)CCC(c2ccc(Nc3ccc4nc(N)sc4c3)cc2)CC1", "note": "[Compound 409, N^6-(4-(4,4-dimethylcyclohexyl)phenyl)benzo[d]thiazole-2,6-diamine]", "EC50": "0.1 to 100"}, {"smiles": "Cn1c(=O)n(C)c2cc(Nc3ccc(N4CCC(CF)CC4)cc3)ccc21", "note": "[Compound 385, 5-((4-(4-(fluoromethyl)piperidin-1-yl)phenyl)amino)-1,3-dimethyl-1,3-dihydro-2H-benzo[d]imidazol-2-one]", "EC50": "0.1 to 100"}, {"smiles": "Cc1cc(Nc2ccc3c(c2)OCC(=O)N3)ccc1N1CC(C)OC(C)C1", "note": "(centres unmarked) [Compound 138, 7-((4-(2,6-dimethylmorpholino)-3-methylphenyl)amino)-2H-benzo[b][1,4]oxazin-3(4H)-one]", "EC50": "0.1 to 100"}, {"smiles": "CC1CCC(N2Cc3cc(Nc4ccc(N5CCC(C(F)(F)F)CC5)cc4)ccc3C2=O)CC1", "note": "(centres unmarked) [Compound 221, 2-(4-methylcyclohexyl)-5-((4-(4-(trifluoromethyl)piperidin-1-yl)phenyl)amino)isoindolin-1-one]", "EC50": "0.1 to 100"}, {"smiles": "CC1CCN(c2ccc(Nc3ccc4c(c3)N(C)CC(=O)N4C)cc2)CC1", "note": "[Compound 102, 1,4-dimethyl-6-((4-(4-methylpiperidin-1-yl)phenyl)amino)-3,4-dihydroquinoxalin-2(1H)-one]", "EC50": "0.1 to 100"}, {"smiles": "CN1C(=O)COc2cc(Nc3ccc(N4CCCCC4)cc3)ccc21", "note": "[Compound 29]", "EC50": "0.1 to 100"}, {"smiles": "CN1Cc2cc(Nc3ccc(N4CCC(C(F)(F)F)C4)cc3)ccc2C1=O", "note": "(centres unmarked) [Compound 222, 2-methyl-5-((4-(3-(trifluoromethyl)pyrrolidin-1-yl)phenyl)amino) isoindolin-1-one]", "EC50": "0.1 to 100"}, {"smiles": "O=C1c2ccc(Nc3ccc(N4CCC(C(F)(F)F)CC4)cc3)cc2CN1Cc1ccccc1", "note": "[Compound 199, 2-benzyl-5-((4-(4-(trifluoromethyl)piperidin-1-yl)phenyl)amino) isoindolin-1-one]", "EC50": "0.1 to 100"}, {"smiles": "CC1CCN(c2ccc(Nc3ccc4ncn(C)c4c3)cc2)CC1", "note": "[Compound 270, 1-methyl-N-(4-(4-methylpiperidin-1-yl)phenyl)-1H-benzo[d]imidazol-6-amine]", "EC50": "0.1 to 100"}, {"smiles": "Cc1cc(N2CCC(C)CC2)ccc1Nc1ccc2c(c1)n(C)c(=O)n2C", "note": "[Compound 280, 1,3-dimethyl-5-((2-methyl-4-(4-methylpiperidin-1-yl)phenyl)amino)-1,3-dihydro-2H-benzo[d]imidazol-2-one]", "EC50": "0.1 to 100"}, {"smiles": "FC(F)(F)C1CCN(c2ccc(Nc3ccc4nc[nH]c4c3)cc2)CC1", "note": "[Compound 357, N-(4-(4-(trifluoromethyl)piperidin-1-yl)phenyl)-1H-benzo[d]imidazol-6-amine]", "EC50": "0.1 to 100"}, {"smiles": "CC1CN(c2ccc(Nc3cc(F)c4c(c3)OCC(=O)N4C)cc2)CC(C)O1", "note": "(centres unmarked) [Compound 87, 7-((4-(2,6-dimethylmorpholino)phenyl)amino)-5-fluoro-4-methyl-2H-benzo[b][1,4]oxazin-3(4H)-one]", "EC50": "0.1 to 100"}, {"smiles": "CN1C(=O)COc2cc(Nc3ccc4c(c3)CCC4(C)C)ccc21", "note": "[Compound 42, 7-((1,1-dimethyl-2,3-dihydro-1H-inden-5-yl)amino)-4-methyl-2H-benzo[b][1,4]o xazin-3(4H)-one]", "EC50": "0.1 to 100"}, {"smiles": "CN1C(=O)COc2ccc(Nc3ccc(N4CCC(C(F)(F)F)CC4)cc3)cc21", "note": "[Compound 28, 4-methyl-6-((4-(4-(trifluoromethyl)piperidin-1-yl)phenyl)amino)-2H-benzo[b][1,4]oxazin-3(4H)-one]", "EC50": "0.1 to 100"}, {"smiles": "CC1CCN(c2ccc(Nc3ccc4c(c3)n(C)c(=O)n4C)cn2)CC1", "note": "[Compound 276, 1,3-dimethyl-5-((6-(4-methylpiperidin-1-yl)pyridin-3-yl)amino)-1,3-dihydro-2H-benzo[d]imidazol-2-one]", "EC50": "0.1 to 100"}, {"smiles": "CC1CCCN(c2ccc(Nc3ccc4c(c3)CN(C)C4=O)cc2)C1", "note": "(centres unmarked) [Compound 241, 2-methyl-5-((4-(3-methylpiperidin-1-yl)phenyl)amino)isoindolin-1-one]", "EC50": "0.1 to 100"}, {"smiles": "CNCCN1C(=O)COc2cc(Nc3ccc(C4CC(C)OC(C)C4)cc3)ccc21", "note": "(centres unmarked) [Compound 54, 7-((4-(2,6-dimethyltetrahydro-2H-pyran-4-yl)phenyl)amino)-4-(2-(methylamino)ethyl)-2H-benzo[b][1,4]oxazin-3(4H)-one]", "EC50": "0.1 to 100"}, {"smiles": "CNCCN1C(=O)COc2cc(Nc3ccc(N4CC(C)OC(C)C4)c(C)c3)ccc21", "note": "(centres unmarked) [Compound 62, 7-((4-(2,6-dimethylmorpholino)-3-methylphenyl)amino)-4-(2-(methylamino)ethyl)-2H-benzo[b][1,4]oxazin-3(4H)-one]", "EC50": "0.1 to 100"}, {"smiles": "CN1C(=O)COc2cc(Nc3ccc(N4CC5CC(C4)O5)c(F)c3)ccc21", "note": "[Compound 99, 7-((4-(6-oxa-3-azabicyclo[3.1.1]heptan-3-yl)-3-fluorophenyl)amino)-4-methyl-2H-benzo[b][1,4]oxazin-3(4H)-one]", "EC50": "0.1 to 100"}]}, {"test_system": "HT-1080 (ATCC, CCL-121) cells", "assay": "HT-1080 cell viability assay with ferroptosis inducer RSL3 (Cell Titer-Glo)", "assay_type": "cell-based", "details": "Homo sapiens; HT-1080 cells treated with RSL3; 3-fold, 10-point dilution, 1.1 μM highest concentration; Table 3; read-out: EC50 (nM), ferroptosis inhibitory activity", "summary_of_the_method": "as §1", "units": {"EC50": "nM"}, "values": [{"smiles": "Cc1cc(N2CC(F)(F)C2)ccc1Nc1ccc2c(c1)OCCC(=O)N2", "note": "[Compound 626, 8-((4-(3,3-difluoroazetidin-1-yl)-2-methylphenyl)amino)-2,3-dihydrobenzo[b][1,4]oxazepin-4(5H)-one]", "EC50": "0.1 to 100"}, {"smiles": "COc1cc(Nc2cnc3c(c2)OCC(=O)N3)c(C)cc1N1CCC(C(F)(F)F)CC1", "note": "[Compound 547, 7-((5-methoxy-2-methyl-4-(4-(trifluoromethyl)piperidin-1-yl)phenyl)amino)-2H-pyrido[3,2-b][1,4]oxazin-3(4H)-one]", "EC50": "0.1 to 100"}, {"smiles": "Cc1cc(Nc2cc(F)c3c(c2)OCC(=O)N3)ccc1N1CCC(C(F)(F)F)CC1", "note": "[Compound 481, 5-fluoro-7-((3-methyl-4-(4-(trifluoromethyl)piperidin-1-yl)phenyl)amino)-2H-benzo[b][1,4]oxazin-3(4H)-one]", "EC50": "0.1 to 100"}, {"smiles": "C[C@H]1CN(c2ccc(Nc3ccc4c(c3)OCC(=O)N4)cc2)CCN1CC(F)(F)F", "note": "[Compound 581, (S)-7-((4-(3-methyl-4-(2,2,2-trifluoroethyl)piperazin-1-yl)phenyl)amino)-2H-benzo[b][1,4]oxazin-3(4H)-one]", "EC50": "0.1 to 100"}, {"smiles": "Cc1cc(N2CCC(OC(F)(F)F)C2)ccc1Nc1ccc2c(c1)OCC(=O)N2", "note": "(centres unmarked) [Compound 589, 7-((2-methyl-4-(3-(trifluoromethoxy)pyrrolidin-1-yl)phenyl)amino)-2H-benzo[b][1,4]oxazin-3(4H)-one]", "EC50": "0.1 to 100"}, {"smiles": "Cc1cc(N2CC(C)C2)ccc1Nc1ccc2c(c1)OCC(=O)N2", "note": "[Compound 577, 7-((2-methyl-4-(3-methylazetidin-1-yl)phenyl)amino)-2H-benzo[b][1,4]oxazin-3(4H)-one]", "EC50": "0.1 to 100"}, {"smiles": "Cc1cc(N2CCC(F)CC2)ccc1Nc1ccc2c(c1)OCC(=O)N2", "note": "[Compound 518, 7-((4-(4-fluoropiperidin-1-yl)-2-methylphenyl)amino)-2H-benzo[b][1,4]oxazin-3(4H)-one]", "EC50": "0.1 to 100"}, {"smiles": "Cc1cc(N2CC(F)C2)ccc1Nc1ccc2c(c1)OC[C@H](N)C(=O)N2", "note": "[Compound 611, (S)-3-amino-8-((4-(3-fluoroazetidin-1-yl)-2-methylphenyl)amino)-2,3-dihydrobenzo[b][1,4]oxazepin-4(5H)-one]", "EC50": "0.1 to 100"}, {"smiles": "Cc1cc(N2CCC(C(F)(F)F)CC2)ccc1Nc1ccc2c(c1)NC(=O)C2(C)C", "note": "[Compound 527, 3,3-dimethyl-6-((2-methyl-4-(4-(trifluoromethyl)piperidin-1-yl)phenyl)amino)indolin-2-one]", "EC50": "0.1 to 100"}, {"smiles": "Cc1cc(N2CCN(CC(F)(F)F)CC2)ccc1Nc1ccc2c(c1)OCC(=O)N2", "note": "[Compound 569, 7-((2-methyl-4-(4-(2,2,2-trifluoroethyl)piperazin-1-yl)phenyl)amino)-2H-benzo[b][1,4] oxazin-3(4H)-one]", "EC50": "0.1 to 100"}, {"smiles": "Cc1cc(N2CCOC(C)C2)ccc1Nc1ccc2c(c1)CCNC2", "note": "(centres unmarked) [Compound 529, N-(2-methyl-4-(2-methylmorpholino)phenyl)-1,2,3,4-tetrahydroisoquinolin-6-amine]", "EC50": "0.1 to 100"}, {"smiles": "Cc1cc(N2CCC(C(F)(F)F)CC2)ccc1Nc1ccc2ncc(C(N)=O)n2c1", "note": "[Compound 630, 6-((2-methyl-4-(4-(trifluoromethyl)piperidin-1-yl)phenyl)amino) imidazo[1,2-a]pyridine-3-carboxamide]", "EC50": "0.1 to 100"}]}]}
